Where two headings read alike, the source gives them in different places.

From patent US20240376097A1, “BCL-2 Inhibitor” (BeiGene Ltd., priority 2020, published 2024) come the findings set out here.

The subject of assay [1] is BCL-2 G101V knock-in cell line H96 (derive from RS4;11). The assay can be described thus: Bcl 2-G101V Knock-In RS4;11 Cell Proliferation Assay. The format is cell-based. As to conditions: RS4;11 Bcl-2 G101V knock-in clone H96, 48 hrs, CellTiter-GLO, read-out: Cellular proliferation assay (IC50, nM) RS4. Here is the method: Biological Example: Bcl 2-G101V Knock-In RS4;11 Cell Proliferation Assay
(1) RS4;11 H96 Bcl 2-G101V Knock-In Cell Line Generation
Briefly, RS4;11 BCL2-G101V knock-in cell pool was generated using Crisper/Cas9 gene editing system and the BCL2-G101V knock-in single clone H96 was picked from the knock-in cell pool and validated by WES (whole exome-sequencing) and RNA-seq.
The BCL-2 dependent acute lymphoblastic leukemia (ALL) cell line, RS4;11(ATCC, CRL-1873), was cultured in RPMI-1640 complete medium (RPMI-1640 medium, HEPES (Gibco, 22400-105) supplemented with 10% fetal bovine serum (FBS) (Gibco, 10099-1441), 100 unit/ml penicillin and 100 μg/ml streptomycin (Gibco, 15140122)) and maintained in a humidified chamber at 37° C. containing 5% CO2.
To obtain BCL2-G101V knock-in cell pool, RS4;11 was co-transfected with the Cas9-gRNA which also expressed GFP label, and the Donor gene which contained the BCL2-G101V mutant sequence. After 48 hrs of electroporation, the GFP positive cells were collected through FACSAriaIII cell sorting system. Cell pool was recovered for 3 days and then cultured under 2 nM ABT-199 stress for 4 weeks. […] Then cells were plated in 96 well U-plate with 1 cell/well for 10000 wells for single clone selection. After 3-5 weeks growing, clones were successively screened by PCR sequencing. And three BCL2-G101V knock-in clones: H96, H142 and H233, have been picked out.
Three clones were validated by genome DNA and cDNA(mRNA) PCR sequencing, and BCL-2, BCL-xL and MCL-1 expression using Western Blot. The H96 clone was also validated by WES (whole exome-sequencing) and RNA-seq.
(2) Bcl 2-G101V Knock-In RS4;11 Cell Proliferation Assay
The BCL-2 G101V knock-in cell line H96 (derive from RS4;11) were used to study the cellular potency of BCL-2 inhibitors. The cells were cultured in RPMI-1640 complete medium (RPMI-1640 medium, HEPES (Gibco, 22400-105) supplemented with 10% fetal bovine serum (FBS) (Gibco, 10099-1441), 100 unit/ml penicillin and 100 μg/ml streptomycin (Gibco, 15140122)) and maintained in a humidified chamber at 37° C. containing 5% CO2. Each compound was serially diluted with 1 μM or 10 μM as the maximum concentration. To test the apoptotic effect of the compounds, the cells were seeded at 50,000 in 90 μl per well in 96-well plates and treated with 10-point dilution series of each compound for 48 hrs at 37° C. Cell viability was assessed after the treatment using CellTiter-GLO luminescent assay (Promega) according to the manufacturer's recommendations. Briefly, 30 μl of CellTiter-GLO reagent was added into 100 μl of cell culture. Mixture was agitated on an orbital shaker for 5 min to ensure cell lysis followed by 7 min incubation at room temperature to allow development and stabilization of luminescent signals, which corresponded to the quantity of ATP and thus the quantity of metabolically active cells. Luminescent signals were measured using PHERAstar FS reader (BMG). Mean IC50 values were determined with GraphPad Prism software.
A general note: ATP-based viability assays read luminescence as a measure of living cells.

Assay [2] relates to RS4;11 (BCL-2 dependent acute lymphoblastic leukemia cell line). The assay can be described thus: RS4;11 Cell Proliferation Assay. The assay is classed as cell-based. As to conditions: read-out: Cellular proliferation assay (IC50, nM) RS4. Here is the method: Biological Example: RS4;11 Cell Proliferation Assay
The BCL-2 dependent acute lymphoblastic leukemia (ALL) cell line, RS4;11, was used to study the cellular potency of BCL-2 inhibitors. The cells (ATCC, CRL-1873) were cultured in RPMI-1640 complete medium (RPMI-1640 medium, HEPES (Gibco, 22400-105) supplemented with 10% fetal bovine serum (FBS) (Gibco, 10099-1441), 100 unit/ml penicillin and 100 μg/ml streptomycin (Gibco, 15140122)) and maintained in a humidified chamber at 37° C. containing 5% CO2. Each compound was serially diluted with 1 μM as the maximum concentration. To test the apoptotic effect of the compounds, the cells were seeded at 50,000 in 180 μl per well in 96-well plates and treated with 10-point dilution series of each compound for 48 hrs at 37° C. Cell viability was assessed after the treatment using CellTiter-GLO luminescent assay (Promega) according to the manufacturer's recommendations. Briefly, 30 μl of CellTiter-GLO reagent was added into 200 μl of cell culture. Mixture was agitated on an orbital shaker for 5 min to ensure cell lysis followed by 7 min incubation at room temperature to allow development and stabilization of luminescent signals, which corresponded to the quantity of ATP and thus the quantity of metabolically active cells. Luminescent signals were measured using PHERAstar FS reader (BMG). Mean IC50 values were determined with GraphPad Prism software.

Assay [3] concerns the target Recombinant human Bcl-2 protein (Homo sapiens (Human), UniProt P10415). Kind of assay: Bcl-2 TR-FRET Assay. The assay is classed as binding. Particulars: Bcl-2 wild type, TR-FRET; read-out: Biochemical assay (IC50, nM) Bcl-2 WT. In short, it runs like this: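 0.05 nM recombinant Bcl-2 preincubated 0.5 h at room temperature with 10-point compound dilutions (top final 1, 0.1, 0.02 or 0.01 uM) in pH 7.5 phosphate buffer. FITC-Bak peptide (0.5 nM) and anti-6His Tb cryptate then added for 1 h. TR-FRET read; IC50 from four-parameter logistic fit.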
(Time-resolved FRET reads energy transfer from a long-lived donor to a nearby acceptor.)

For assay [4], the target named is recombinant human Bcl-2-G101V protein (Homo sapiens (Human), UniProt P10415, G101V). The assay can be described thus: Bcl-2-G101V TR-FRET Assay. The format is binding. As to conditions: Bcl-2 G101V mutant, TR-FRET; read-out: Biochemical assay (IC50, nM) Bcl-2 G101V. A digest of the protocol:
(§1)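 TR-FRET read at excitation 337 nm with emission at 490 nm and 520 nm. Inhibition of Bcl-2-G101V binding to its ligand across increasing compound concentrations was calculated from the 490/520 nm fluorescence ratio, and IC50 values came from four-parameter logistic fits.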

Assay [5] concerns the target recombinant human Bcl-2 D103Y protein (Homo sapiens (Human), UniProt P10415, D103Y). Kind of assay: Bcl-2-D103Y Biochemical Assay (TR-FRET). The format is binding. As to conditions: ratio of IC50. Here is the method: Biological Example: Bcl-2-D103Y Biochemical Assay
[…]. The TR-FRET signals (ex337 nm, em490 nm/520 nm) were read on BMG PHERAstar FSX instrument. The inhibition percentage of Bcl-2 D103Y interaction with its ligand in presence of increasing concentrations of compounds was calculated based on the ratio of fluorescence at 490 nm to that at 520 nm. The IC50 for each compound was derived from fitting the data to the four-parameter logistic equation by Dotmatics.

Assay [6] concerns recombinant human Bcl-2-G101V protein. The assay can be described thus: Bcl-2-G101V TR-FRET Assay. The assay is classed as binding. As to conditions: ratio of biochemical IC50 Bcl-2 G101V / Bcl-2 WT. A digest of the protocol: as §1
Setting [7] is: Homo sapiens, RS4-11, RS4;11 cells.

In the case of `COCCN1CCN(C2CC3(CCN(c4ccc(C(=O)NS(=O)(=O)c5ccc(NC[C@H]6CC[C@](C)(O)CC6)c([N+](=O)[O-])c5)c(Oc5cnc6[nH]ccc6c5)c4)CC3)C2)C(c2ccccc2C(C)C)C1` (stereo partly drawn) [Example 13, 2-((1H-pyrrolo[2,3-b]pyridin-5-yl)oxy)-N-((4-((((1r,4r)-4-hydroxy-4-methylcyclohexyl)methyl)amino)-3-nitrophenyl)sulfonyl)-4-(2-(2-(2-isopropylphenyl)-4-(2-methoxyethyl)piperazin-1-yl)-7-azaspiro[3.5]nonan-7-yl)benzamide], the IC50 in assay [1] (Homo sapiens) is 5.67 nM; in assay [2] (setting [7]), 0.7 nM.
Regarding `CC(C)c1ccccc1[C@@H]1CN(Cc2cccc3c2OCCO3)CCN1C1CC2(CCN(c3ccc(C(=O)NS(=O)(=O)c4ccc(NC[C@H]5CC[C@](C)(O)CC5)c([N+](=O)[O-])c4)c(Oc4cnc5[nH]ccc5c4)c3)CC2)C1` [Example 79b, 2-((1H-pyrrolo[2,3-b]pyridin-5-yl)oxy)-4-(2-(S-4-((2,3-dihydrobenzo [b][1,4]dioxin-5-yl)methyl)-2-(2-isopropylphenyl)piperazin-1-yl)-7-azaspiro[3.5]nonan-7-yl)-N-((4-((((1r,4r)-4-hydroxy-4-methylcyclohexyl)methyl)amino)-3-nitrophenyl)sulfonyl)benzamide], the IC50 came to 0.68 nM in assay [1] (Homo sapiens), 0.33 nM in assay [3], 0.16 nM in assay [2] (setting [7]) and 19 nM in assay [4].
As for `COc1cc(CN2CCN(C3CC4(CCN(c5ccc(C(=O)NS(=O)(=O)c6ccc(NC[C@H]7CC[C@](C)(O)CC7)c([N+](=O)[O-])c6)c(Oc6cnc7[nH]cc(F)c7c6)c5)CC4)C3)[C@H](c3ccccc3C(C)C)C2)ccc1Cl` [Example 278, 4-(2-((R)-4-(4-chloro-3-methoxybenzyl)-2-(2-isopropylphenyl)piperazin-1-yl)-7-azaspiro[3.5]nonan-7-yl)-2-((3-fluoro-1H-pyrrolo[2,3-b]pyridin-5-yl)oxy)-N-((4-((((1r,4r)-4-hydroxy-4-methylcyclohexyl)methyl)amino)-3-nitrophenyl)sulfonyl) benzamide], the IC50 in assay [1] (Homo sapiens) was 0.46 nM; in assay [2] (setting [7]) it was 0.15 nM.
The corresponding values for `COc1cc(CN2CCN(C3CC4(CCN(c5ccc(C(=O)NS(=O)(=O)c6ccc(NC[C@H]7CC[C@](C)(O)CC7)c([N+](=O)[O-])c6)c(Oc6cnc7[nH]ccc7c6)c5)CC4)C3)[C@H](c3ccccc3C(C)C)C2)ccc1Cl` [Example 276, 2-((1H-pyrrolo[2,3-b]pyridin-5-yl)oxy)-4-(2-((R)-4-(4-chloro-3-methoxybenzyl)-2-(2-isopropylphenyl)piperazin-1-yl)-7-azaspiro[3.5]nonan-7-yl)-N-((4-((((1r,4r)-4-hydroxy-4-methylcyclohexyl)methyl)amino)-3-nitrophenyl)sulfonyl)benzamide] are 0.71 nM and 0.15 nM.
Take “2-((1H-pyrrolo[2,3-b]pyridin-5-yl)oxy)-N-((4-((((1r,4r)-4-bydroxy-4-methylcyclohexyl)methyl)amino)-3-nitrophenyl)sulfonyl)-4-(2-((R or S)-2-(2-isopropylphenyl)-4-(2-methoxyethyl)piperazin-1-yl)-7-azaspiro[3.5]nonan-7-yl)benzamide [Example 13b]”: the results for the IC50 in assay [1] and in assay [2] (RS4;11 cells) were 2.81 nM and 0.32 nM, respectively. For the same compound, in assay [5], the “Ratio of Bcl-2 D103Y/Bcl-2 WT” value came to 12. Besides, the “Ratio of Bcl-2 G101V/WT” value in assay [6] stood at 22.1.
For `COc1cc(CN2CCN(C3CC4(CCN(c5ccc(C(=O)NS(=O)(=O)c6ccc(NC[C@H]7CC[C@](C)(O)CC7)c([N+](=O)[O-])c6)c(Oc6cnc7[nH]cc(F)c7c6)c5)CC4)C3)[C@H](c3ccccc3C(C)C)C2)cc(C)c1OC` [Example 210, 4-(2-((R)-4-(3,4-dimethoxy-5-methylbenzyl)-2-(2-isopropylphenyl)piperazin-1-yl)-7-azaspiro[3.5]nonan-7-yl)-2-((3-fluoro-1H-pyrrolo[2,3-b]pyridin-5-yl)oxy)-N-((4-((((1r,4r)-4-hydroxy-4-methylcyclohexyl)methyl)amino)-3-nitrophenyl)sulfonyl)benzamide], the results for the IC50 in assay [1] (Homo sapiens) and in assay [2] (setting [7]) were 0.54 nM and 0.12 nM, respectively.
The matching figures for `CC(C)c1ccccc1C1CN(CC(C)(C)C)CCN1C1CC2(CCN(c3ccc(C(=O)NS(=O)(=O)c4ccc(NC[C@H]5CC[C@](C)(O)CC5)c([N+](=O)[O-])c4)c(Oc4cnc5[nH]ccc5c4)c3)CC2)C1` (stereo partly drawn) [Example 12, 2-((1H-pyrrolo[2,3-b]pyridin-5-yl)oxy)-N-((4-((((1r,4r)-4-hydroxy-4-methylcyclohexyl)methyl)amino)-3-nitrophenyl)sulfonyl)-4-(2-(2-(2-isopropylphenyl)-4-neopentylpiperazin-1-yl)-7-azaspiro[3.5]nonan-7-yl)benzamide]: 40.5 nM and 3 nM.
